The source made the active and inactive calls. No cut-off for these calls is given here.
Tests used:
Format in all cases: functional, cell-based
[1] = Cytotoxicity against human BGC823 cells after 96 hrs by MTT assay; settings: BGC-823, 96 h
[2] = tested on: HepG2; assay: Cytotoxicity against human HepG2 cells after 96 hrs by MTT assay; settings: HepG2, 96 h
[3] = tested on: BV-2; assay: Inhibition of LPS-induced NO production in mouse BV2 cells compound pre-treated for 1 hr before LPS addition measured after 24 hrs by Griess assay
[4] = tested on: SK-OV-3; assay: Cytotoxicity against human SKOV3 cells after 96 hrs by MTT assay; settings: SK-OV-3, 96 h
[5] = tested on: HCT-116; assay: Cytotoxicity against human HCT116 cells after 96 hrs by MTT assay; settings: HCT-116, 96 h
[6] = tested on: NCI-H1650; assay: Cytotoxicity against human NCI-H1650 cells after 96 hrs by MTT assay; settings: NCI-H1650, 96 h

Row | IC50 [3] | SMILES | IC50 [1] | IC50 [2] | IC50 [4] | IC50 [5] | IC50 [6] | inhibition [3]
1 | 10 µM | COC(=O)C[C@H]1OC(C)(C)[C@@H]2CC(=O)[C@]3(C)[C@H]([C@@H](O)C[C@@]4(C)[C@H](c5ccoc5)OC(=O)[C@H]5O[C@]543)[C@@]12C | > 10 µM | > 10 µM | > 10 µM | > 10 µM | > 10 µM | –
2 | – | CC(=O)O[C@H]1CC(=O)OC(C)(C)[C@@H]2CC(=O)[C@]3(C)[C@H]([C@@H](O)C[C@@]4(C)[C@H](C5=CC(=O)OC5O)OC(=O)[C@H]5O[C@]543)[C@@]12C (relative stereo) | > 10 µM | > 10 µM | > 10 µM | > 10 µM | > 10 µM | inactive
3 | – | CC1(C)OC(=O)C=C[C@]2(C)[C@H]3[C@@H](O)C[C@@]4(C)[C@H](C5=CC(O)OC5=O)OC(=O)[C@H]5O[C@]54[C@]3(C)C(=O)C[C@@H]12 (stereo partly specified) | > 10 µM | > 10 µM | > 10 µM | > 10 µM | > 10 µM | inactive
4 | – | CC(C)(O)[C@@H]1CC(=O)[C@]2(C)[C@@H]3[C@H](C[C@@]4(C)[C@H](c5ccoc5)OC(=O)[C@H]5O[C@]542)OC(=O)C=C[C@]31C | > 10 µM | > 10 µM | > 10 µM | > 10 µM | > 10 µM | inactive
5 | 5.3 µM | CC1(C)OC(=O)C=C[C@]2(C)[C@H]3[C@@H](O)C[C@@]4(C)[C@H](c5ccoc5)OC(=O)[C@H]5O[C@]54[C@]3(C)C(=O)C[C@@H]12 | > 10 µM | > 10 µM | > 10 µM | > 10 µM | > 10 µM | –
6 | 6.7 µM | COC(=O)C[C@@H]1OC(C)(C)[C@@H]2CC(=O)[C@]3(C)[C@H]([C@@H](O)C[C@@]4(C)[C@H](c5ccoc5)OC(=O)[C@H]5O[C@]543)[C@@]12C | > 10 µM | > 10 µM | > 10 µM | > 10 µM | > 10 µM | –
7 | 5.1 µM | CCOC(=O)C[C@H](OC(C)=O)[C@]1(C)[C@H]2[C@@H](O)C[C@@]3(C)[C@H](c4ccoc4)OC(=O)[C@H]4O[C@]43[C@]2(C)C(=O)C[C@H]1C(C)(C)O | > 10 µM | > 10 µM | > 10 µM | > 10 µM | > 10 µM | –
8 | – | COC(=O)C[C@H]1OC(C)(C)[C@@H]2CC(=O)[C@]3(C)[C@H]([C@@H](O)C[C@@]4(C)[C@H](C5=CC(O)OC5=O)OC(=O)[C@H]5O[C@]543)[C@@]12C (relative stereo) | > 10 µM | > 10 µM | > 10 µM | > 10 µM | > 10 µM | inactive
9 | 0.5 µM | COc1cc(/C=C/C(=O)CC(=O)/C=C/c2ccc(O)c(OC)c2)ccc1O [CURCUMIN] | – | – | – | – | – | –
10 | – | CC(=O)O[C@H]1CC(=O)OC(C)(C)[C@@H]2CC(=O)[C@]3(C)[C@H]([C@@H](O)C[C@@]4(C)[C@H](c5ccoc5)OC(=O)[C@H]5O[C@]543)[C@@]12C | > 10 µM | > 10 µM | > 10 µM | > 10 µM | > 10 µM | inactive
11 | – | CC(=O)O[C@@H](CC(=O)O)[C@]1(C)[C@H]2[C@@H](O)C[C@@]3(C)[C@H](C4=CC(O)OC4=O)OC(=O)[C@H]4O[C@]43[C@]2(C)C(=O)C[C@H]1C(C)(C)O (relative stereo) | > 10 µM | > 10 µM | > 10 µM | > 10 µM | > 10 µM | inactive
12 | – | CC(=O)O[C@H]1CC(=O)OC(C)(C)[C@@H]2CC(=O)[C@]3(C)[C@H]([C@@H](O)C[C@@]4(C)[C@H](C5=CC(O)OC5=O)OC(=O)[C@H]5O[C@]543)[C@@]12C (stereo partly specified) | > 10 µM | > 10 µM | > 10 µM | > 10 µM | > 10 µM | inactive
13 | 8.8 µM | COC(=O)C[C@H](OC(C)=O)[C@]1(C)[C@H]2[C@@H](O)C[C@@]3(C)[C@H](c4ccoc4)OC(=O)[C@H]4O[C@]43[C@]2(C)C(=O)C[C@H]1C(C)(C)O | > 10 µM | > 10 µM | > 10 µM | > 10 µM | > 10 µM | –
14 | – | COC(=O)C[C@H]1OC(C)(C)[C@@H]2CC(=O)[C@]3(C)[C@H]([C@@H](O)C[C@@]4(C)[C@H](C5=CC(=O)OC5O)OC(=O)[C@H]5O[C@]543)[C@@]12C (stereo partly specified) | > 10 µM | > 10 µM | > 10 µM | > 10 µM | > 10 µM | inactive
15 | 7 µM | COC(=O)C[C@H](O)[C@]1(C)[C@H]2[C@@H](O)C[C@@]3(C)[C@H](c4ccoc4)OC(=O)[C@H]4O[C@]43[C@]2(C)C(=O)C[C@H]1C(C)(C)O | > 10 µM | > 10 µM | > 10 µM | > 10 µM | > 10 µM | –
16 | – | CC1(C)OC(=O)C=C[C@]2(C)[C@H]3[C@@H](O)C[C@@]4(C)[C@@H](C5=CC(=O)OC5O)OC(=O)[C@H]5O[C@]54[C@]3(C)C(=O)C[C@@H]12 (stereo partly specified) | > 10 µM | > 10 µM | > 10 µM | > 10 µM | > 10 µM | inactive
